The target of one assay is T1, CDK7 (Homo sapiens, UniProt P50613).
T1 construct: purchased Carna Biosciences, Inc. 04-108
Briefly: CDK7 enzyme inhibition test. Conditions: [γ-33P]ATP, MBP substrate, 60 min preincubation at 25°C; Ki=IC50/(1+S/Km); read-out: Ki value of CDK7 inhibitory activity. Format: biochemical. How it is done:
(§1) The preparation of a buffer solution was performed by mixing a N-2-hydroxyethylpiperazine-N′-2-ethanesulfonic acid buffer solution (HEPES buffer solution) (pH 7.4), dithiothreitol (DTT), Triton X-100, and magnesium chloride (MgCl2). A 500 μM [γ-^33P]ATP solution was used by diluting a 10 mM ATP solution and a commercially available [γ-^33P]ATP solution (manufactured by PerkinElmer, Inc., Code No. NEG-302H) with the buffer solution. A CDK7 solution was used by diluting commercially available CDK7 (manufactured by Carna Biosciences, Inc., Catalog No. 04-108) with the buffer solution. A substrate solution was used by diluting myelin basic protein (MBP) with the buffer solution. As for the preparation of a reaction solution, the buffer solution, the CDK7 solution, and the substrate solution were mixed at 4° C. to obtain a reaction solution.
CDK7 enzyme reaction was performed by adding 5 μL of a test compound solution prepared with 10% DMSO/90% injectable distilled water, and 40 μL of the reaction solution to a 1.5 mL microtube at 4° C. and preincubating the microtube at 25° C. for 60 minutes in a water bath incubator. Subsequently, reaction was performed at 30° C. for 20 minutes by adding 5 μL of the 500 μM [γ-^33P]ATP solution. After the reaction, a 10% aqueous trichloroacetic acid (TCA) solution was added to each microtube while cooled to 4° C., and mixed in a vortex mixer to terminate the reaction. The resultant was left standing at 4° C. for 10 minutes and then centrifuged, and the supernatant was discarded. Next, a 2% aqueous trichloroacetic acid (TCA) solution was added thereto, mixed in a vortex mixer, and then centrifuged, and the supernatant was discarded. This washing operation was performed twice. After the washing, precipitates were dissolved in a 1 N aqueous sodium hydroxide (NaOH) solution, and the energy quantity (radioactivity) of the reaction product was measured with a liquid scintillation counter.
The calculation of the inhibitory activity of the test compound against CDK7 was performed as a test compound concentration inhibiting 50% of the amount of ^33P bound to MBP (IC50 value) by using EXSUS (version 8.1.0, manufactured by CAC Exicare Corp.).
(§2) The calculation of a Ki value was performed according to the following calculation expression wherein S represents the concentration of ATP contained in the reaction solution, and Km represents a Michaelis-Menten constant: Ki=IC50/(1+S/Km)

A further assay addresses T2, CDK2 (Homo sapiens, UniProt P24941).
T2 construct: purchased Invitrogen Corp. PV3267
Briefly: CDK2 enzyme inhibition test. Format: biochemical. As to conditions: [γ-33P]ATP, MBP substrate; Ki=IC50/(1+S/Km); read-out: Ki value of CDK2 inhibitory activity. How it is done: as §1, with “by Perkin Elmer,” for “by PerkinElmer,”, “A CDK2” for “A CDK7”, “available CDK2” for “available CDK7”, “by Invitrogen Corp.,” for “by Carna Biosciences, Inc.,”, “No. PV3267)” for “No. 04-108)”, “the 500 μM [γ-^33P]ATP solution, the CDK2” for “the CDK7”
(§3) CDK2 enzyme reaction was performed by adding 5 μL of a test compound solution prepared with 10% DMSO/90% injectable distilled water, and 45 μL of the reaction solution in a 1.5 mL microtube at 4° C. and reacting in the microtube at 30° C. for 20 minutes in a water bath incubator. After the reaction, a 10% aqueous trichloroacetic acid (TCA) solution was added to each microtube while cooled to 4° C., and mixed in a vortex mixer to terminate the reaction. The resultant was left standing at 4° C. for 10 minutes and then centrifuged, and the supernatant was discarded. Next, a 2% aqueous trichloroacetic acid (TCA) solution was added thereto, mixed in vortex mixer, and then centrifuged, and the supernatant was discarded. This washing operation was performed twice. After the washing, precipitates were dissolved in a 1 N aqueous sodium hydroxide (NaOH) solution, and the energy quantity (radioactivity) of the reaction product was measured with a liquid scintillation counter.
The calculation of the inhibitory activity of the test compound against CDK2 was performed as a test compound concentration inhibiting 50% of the amount of ^33P bound to MBP (IC50 value) by using EXSUS (version 8.1.0, manufactured by CAC Exicare Corp.).
as §2

Assay [1] deals with human large intestine cancer cell line (HCT-116). Briefly: Human large intestine cancer (HCT-116) cell growth inhibition test. Format: cell-based. Conditions: HCT-116, 72 h, culture for 3 days, sulforhodamine B, read-out: GI50 value, HCT-116 cell growth inhibition. How it is done:
The measurement of a human large intestine cancer cell growth inhibitory effect was carried out by modifying the method of Simak et al. (Cancer Research, 69, 6208 (2009)).
A human large intestine cancer cell line (HCT-116, obtained from DS Pharma Biomedical Co., Ltd.) was cultured in a McCoy's 5A medium (manufactured by Thermo Fisher Scientific, Inc.) containing 10% fetal bovine serum (FBS) (manufactured by Thermo Fisher Scientific, Inc.) and 1% penicillin/streptomycin/amphotericin B (manufactured by Thermo Fisher Scientific, Inc.) and inoculated at 0.5 to 2.0×10^3 cells/well in a 96-well plate. After overnight culture in a carbon dioxide incubator, the medium was replaced with a fresh medium on the next day, and a test compound dissolved in DMSO (final DMSO concentration: 0.1%) was added thereto and left standing in a carbon dioxide incubator. After culture for 3 days, the absorbance thereof was measured by using In Vitro Toxicology Assay Kit Sulforhodamine B based (manufactured by Sigma-Aldrich Co. LLC.).
The rate of inhibition of cell growth at each concentration was calculated from the test compound concentration and the absorbance of sulforhodamine B, and the concentration of the test compound necessary for inhibiting 50% of cell growth (GI50 value) was calculated by using EXSUS (version 8.1.0, manufactured by CAC Exicare Corp.).

For another assay, the target named is T3, PLK1 (Homo sapiens, UniProt P53350).
T3 construct: purchased Carna Biosciences, Inc. 05-157
T3 sequence (P53350 whole entry): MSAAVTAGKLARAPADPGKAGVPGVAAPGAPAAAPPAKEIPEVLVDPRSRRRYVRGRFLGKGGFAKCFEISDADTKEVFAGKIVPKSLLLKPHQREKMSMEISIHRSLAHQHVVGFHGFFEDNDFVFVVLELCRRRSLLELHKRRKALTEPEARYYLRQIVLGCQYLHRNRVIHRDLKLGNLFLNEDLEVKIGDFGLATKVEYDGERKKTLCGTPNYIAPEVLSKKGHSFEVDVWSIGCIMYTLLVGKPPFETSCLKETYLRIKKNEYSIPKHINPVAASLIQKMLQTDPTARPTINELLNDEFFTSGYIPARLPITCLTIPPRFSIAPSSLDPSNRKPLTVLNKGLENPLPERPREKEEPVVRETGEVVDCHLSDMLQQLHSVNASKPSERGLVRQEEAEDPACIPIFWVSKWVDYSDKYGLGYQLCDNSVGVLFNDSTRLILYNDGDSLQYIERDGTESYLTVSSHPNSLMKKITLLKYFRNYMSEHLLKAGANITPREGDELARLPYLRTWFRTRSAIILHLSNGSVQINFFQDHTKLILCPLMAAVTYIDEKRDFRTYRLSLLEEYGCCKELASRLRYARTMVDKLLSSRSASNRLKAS
Briefly: PLK1 enzyme (polo-like kinase) inhibition test. Format: biochemical. Conditions: [γ-33P]ATP, casein substrate; Ki=IC50/(1+S/Km); read-out: Ki value of PLK1 inhibitory activity. How it is done: The preparation of a buffer solution was performed by mixing a 3-morpholinopropanesulfonic acid buffer solution (MOPS buffer solution) (pH 7.0), dithiothreitol (DTT), and magnesium acetate (Mg(CH3COO)2). A 1 mM [γ-^33P]ATP solution was used by diluting a 10 mM ATP solution and a commercially available [γ-^33P]ATP solution (manufactured by Perkin Elmer, Inc., Code No. NEG-302H) with the buffer solution. A PLK1 solution was used by diluting commercially available PLK1 (manufactured by Carna Biosciences, Inc., Catalog No. 05-157) with the buffer solution. A substrate solution was used by diluting casein with the buffer solution. As for the preparation of a reaction solution, the buffer solution, the 500 μM [γ-^33P]ATP solution, the PLK1 solution, and the substrate solution were mixed at 4° C. to obtain a reaction solution.
as §3, with “PLK1 enzyme reaction” for “CDK2 enzyme reaction”, “mixed in a vortex mixer,” for “mixed in vortex mixer,”
The calculation of the inhibitory activity of the test compound against PLK1 was performed as a test compound concentration inhibiting 50% of the amount of ^33P bound to casein (IC50 value) by using EXSUS (version 8.1.0, manufactured by CAC Exicare Corp.).
as §2

One may read the Ki as a measure of affinity in units of concentration, obtained from inhibition or displacement. The term GI50 denotes the concentration giving 50% growth inhibition.

Structures are written as SMILES. Where only a bound is given, the exact number is not on record here.

T1 sequence (P50613 whole entry): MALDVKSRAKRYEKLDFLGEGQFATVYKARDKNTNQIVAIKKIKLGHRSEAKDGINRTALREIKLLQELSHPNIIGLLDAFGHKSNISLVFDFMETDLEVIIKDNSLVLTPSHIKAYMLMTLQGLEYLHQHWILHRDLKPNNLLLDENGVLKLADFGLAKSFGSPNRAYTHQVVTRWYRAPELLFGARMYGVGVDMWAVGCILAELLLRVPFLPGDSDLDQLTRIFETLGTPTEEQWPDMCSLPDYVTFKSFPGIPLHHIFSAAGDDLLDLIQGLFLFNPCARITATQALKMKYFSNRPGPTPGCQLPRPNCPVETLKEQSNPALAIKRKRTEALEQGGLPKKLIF
T1 sequence (P51946 whole entry partner): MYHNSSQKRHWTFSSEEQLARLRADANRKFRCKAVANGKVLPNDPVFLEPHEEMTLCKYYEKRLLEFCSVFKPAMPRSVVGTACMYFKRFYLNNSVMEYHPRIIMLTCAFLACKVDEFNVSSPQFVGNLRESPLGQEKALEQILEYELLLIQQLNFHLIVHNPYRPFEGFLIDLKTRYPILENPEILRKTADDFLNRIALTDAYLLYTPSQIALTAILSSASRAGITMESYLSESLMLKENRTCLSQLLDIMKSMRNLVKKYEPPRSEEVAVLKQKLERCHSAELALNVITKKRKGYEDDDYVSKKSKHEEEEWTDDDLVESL
T1 sequence (P51948 whole entry partner): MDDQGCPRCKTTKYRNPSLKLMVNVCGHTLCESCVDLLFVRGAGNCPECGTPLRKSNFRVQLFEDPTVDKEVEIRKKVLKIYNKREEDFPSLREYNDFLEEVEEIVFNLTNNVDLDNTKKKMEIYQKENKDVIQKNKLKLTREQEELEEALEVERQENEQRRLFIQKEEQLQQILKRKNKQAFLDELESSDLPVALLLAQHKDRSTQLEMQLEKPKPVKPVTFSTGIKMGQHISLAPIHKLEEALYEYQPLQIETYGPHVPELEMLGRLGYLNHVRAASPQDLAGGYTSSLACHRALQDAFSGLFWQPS

On to `CC1(C)c2[nH]nc(NC(=O)C3([Si](C)(C)C)CCC3)c2CN1C(=O)Nc1ccccc1Cl` [IV-9, N-(2-Chlorophenyl)-6,6-dimethyl-3-[1-(trimethylsilyl)cyclobutanecarboxamido]-4,6-dihydropyrrolo[3,4-c]pyrazole-5(1H)-carboxamide], for which the Ki was not above 50 nM on CDK7 and not below 1000 nM on CDK2. In assay [1], the GI50 was not above 100 nM.

For the molecule `COc1ccccc1NC(=O)N1Cc2c(NC(=O)C3([Si](C)(C)C)CCC3)n[nH]c2C1(C)C` [IV-75, N-(2-Methoxyphenyl)-6,6-dimethyl-3-[1-(trimethylsilyl)cyclobutanecarboxamido]-4,6-dihydropyrrolo[3,4-c]pyrazole-5(1H)-carboxamide], the Ki is not above 50 nM at CDK7 and not below 1000 nM on CDK2. Further, the GI50 in assay [1] is not above 100 nM.

Consider `CC1(C)c2[nH]nc(NC(=O)C3([Si](C)(C)C)CCC3)c2CN1C(=O)Nc1cccc(F)c1F` [IV-99, N-(2,3-Difluorophenyl)-6,6-dimethyl-3-[1-(trimethylsilyl)cyclobutanecarboxamido]-4,6-dihydropyrrolo[3,4-c]pyrazole-5(1H)-carboxamide], for which the inhibition constant (Ki) at CDK7 is not above 50 nM. Further, in assay [1], the GI50 was not above 100 nM.

As to `CC1(C)c2[nH]nc(NC(=O)C3([Si](C)(C)C)CCC3)c2CN1C(=O)Nc1ccc(F)cc1F` [IV-101, N-(2,4-Difluorophenyl)-6,6-dimethyl-3-[1-(trimethylsilyl)cyclobutanecarboxamido]-4,6-dihydropyrrolo[3,4-c]pyrazole-5(1H)-carboxamide], the Ki on CDK7 is not above 50 nM. Further, the GI50 in assay [1] was not above 100 nM.

For the molecule `CC1(C)c2[nH]nc(NC(=O)C3([Si](C)(C)C)CCC3)c2CN1C(=O)Nc1cc(F)ccc1F` [IV-103, N-(2,5-Difluorophenyl)-6,6-dimethyl-3-[1-(trimethylsilyl)cyclobutanecarboxamido]-4,6-dihydropyrrolo[3,4-c]pyrazole-5(1H)-carboxamide], the Ki at CDK7 is not above 50 nM. The GI50 in assay [1] was not above 100 nM.

As for `CC1(C)c2[nH]nc(NC(=O)C3([Si](C)(C)C)CCC3)c2CN1C(=O)Nc1cc(Cl)ccc1F` [IV-111, N-(5-Chloro-2-fluorophenyl)-6,6-dimethyl-3-[1-(trimethylsilyl)cyclobutanecarboxamido]-4,6-dihydropyrrolo[3,4-c]pyrazole-5 (1H)-carboxamide], the Ki at CDK7 is not above 50 nM. The GI50 in assay [1] is not above 100 nM.

In the case of `Cc1ccc(NC(=O)N2Cc3c(NC(=O)C4([Si](C)(C)C)CCC4)n[nH]c3C2(C)C)c(F)c1` [IV-125, N-(2-Fluoro-4-methylphenyl)-6,6-dimethyl-3-[1-(trimethylsilyl)cyclobutanecarboxamido]-4,6-dihydropyrrolo[3,4-c]pyrazole-5 (1H)-carboxamide], the Ki at CDK7 was not above 50 nM. For the same molecule, the GI50 in assay [1] was not above 100 nM.

Turning to `CC1(C)c2[nH]nc(NC(=O)C3([Si](C)(C)C)CCC3)c2CN1C(=O)Nc1c(F)cccc1C(F)(F)F` [IV-153, N-[2-Fluoro-6-(trifluoromethyl)phenyl]-6,6-dimethyl-3-[1-(trimethylsilyl)cyclobutanecarboxamido]-4,6-dihydropyrrolo[3,4-c]pyrazole-5(1H)-carboxamide], the Ki at CDK7 was not above 50 nM; at PLK1 it was not below 5000 nM. The GI50 in assay [1] was not above 100 nM.

As to `Cc1cccc(NC(=O)N2Cc3c(NC(=O)C4([Si](C)(C)C)CCC4)n[nH]c3C2(C)C)c1C` [IV-375, N-(2,3-Dimethylphenyl)-6,6-dimethyl-3-[1-(trimethylsilyl)cyclobutanecarboxamido]-4,6-dihydropyrrolo[3,4-c]pyrazole-5(1H)-carboxamide], on CDK7, the Ki is not above 50 nM. Also, in assay [1], the GI50 is not above 100 nM.

Regarding `CC1(C)c2[nH]nc(NC(=O)C3([Si](C)(C)C)CCC3)c2CN1C(=O)Nc1c(F)cc(F)cc1F` [IV-599, 6,6-Dimethyl-N-(2,4,6-trifluorophenyl)-3-[1-(trimethylsilyl)cyclobutanecarboxamido]-4,6-dihydropyrrolo[3,4-c]pyrazole-5(1H)-carboxamide], the Ki on CDK7 is not above 50 nM. In assay [1], the GI50 was not above 100 nM.

Consider `Cc1nscc1NC(=O)N1Cc2c(NC(=O)C3([Si](C)(C)C)CCC3)n[nH]c2C1(C)C` [IV-1035, 6,6-Dimethyl-N-(3-methylisothiazol-4-yl)-3-[1-(trimethylsilyl)cyclobutanecarboxamido]-4,6-dihydropyrrolo[3,4-c]pyrazole-5 (1H)-carboxamide], for which the Ki on CDK7 is not above 50 nM. Also, the GI50 in assay [1] was not above 100 nM.

Values taken from patent US10894798B2, “Substituted dihydropyrrolopyrazole derivative” (UBE INDUSTRIES, LTD., priority 2015, dated 2021).
